Results reported in ChEMBL document CHEMBL3232998, “Spiromastixones A-O, antibacterial chlorodepsidones from a deep-sea-derived Spiromastix sp. fungus” (J Nat Prod, 2014).
Converted amounts (≈) assume the structure as drawn.

How the values were obtained:
[1] = test system: Staphylococcus epidermidis; experiment: Antibacterial activity against methicillin-sensitive Staphylococcus epidermidis ATCC 12228 after 18 hrs by broth microdilution method; format: functional, organism-based; settings: ATCC 12228, 18 h, read-out: IC50
Klebsiella pneumoniae [2] = experiment: Antibacterial activity against NDM-1 producing Klebsiella pneumoniae ATCC BAA-2146 after 18 hrs by broth microdilution method; format: functional, organism-based; settings: ATCC BAA-2146, 18 h, read-out: IC50
Staphylococcus aureus [3] = experiment: Antibacterial activity against methicillin-sensitive Staphylococcus aureus 12-28 after 18 hrs by broth microdilution method; format: functional, organism-based; settings: 12-28, 18 h
[4] = test system: Staphylococcus epidermidis; experiment: Antibacterial activity against methicillin-sensitive Staphylococcus epidermidis 12-6 after 18 hrs by broth microdilution method; format: functional, organism-based; settings: 12-6, 18 h
Escherichia coli [5] = experiment: Antibacterial activity against extended spectrum beta-lactamase-deficient Escherichia coli 12-14 after 18 hrs by broth microdilution method; format: functional, organism-based; settings: 12-14, 18 h, read-out: IC50
Escherichia coli [6] = experiment: Antibacterial activity against extended spectrum beta-lactamase producing Escherichia coli 12-15 after 18 hrs by broth microdilution method; format: functional, organism-based; settings: 12-15, 18 h, read-out: IC50
Staphylococcus aureus [7] = experiment: Antibacterial activity against methicillin-sensitive Staphylococcus aureus ATCC 29213 after 18 hrs by broth microdilution method; format: functional, organism-based; settings: ATCC 29213, 18 h, read-out: IC50
Enterococcus faecium [8] = experiment: Antibacterial activity against vancomycin-resistant Enterococcus faecium 12-1 after 18 hrs by broth microdilution method; format: functional, organism-based; settings: 12-1, 18 h, read-out: IC50
Enterococcus faecalis [9] = experiment: Antibacterial activity against vancomycin-sensitive Enterococcus faecalis 12-5 after 18 hrs by broth microdilution method; format: functional, organism-based; settings: 12-5, 18 h, read-out: IC50
Enterococcus faecalis [10] = experiment: Antibacterial activity against vancomycin-resistant Enterococcus faecalis 09-9 after 18 hrs by broth microdilution method; format: functional, organism-based; settings: 09-9, 18 h, read-out: IC50
Escherichia coli [11] = experiment: Antibacterial activity against extended spectrum beta-lactamase-deficient Escherichia coli 1515 after 18 hrs by broth microdilution method; format: functional, organism-based; settings: Escherichia coli, 1515, 18 h
Klebsiella pneumoniae [12] = experiment: Antibacterial activity against extended spectrum beta-lactamase-deficient Klebsiella pneumoniae 7 after 18 hrs by broth microdilution method; format: functional, organism-based; settings: Klebsiella pneumoniae, 7, 18 h; read-out: IC50
Enterococcus faecium [13] = experiment: Antibacterial activity against vancomycin-sensitive Enterococcus faecium 12-3 after 18 hrs by broth microdilution method; format: functional, organism-based; settings: 12-3, 18 h, read-out: IC50
Staphylococcus aureus [14] = experiment: Antibacterial activity against methicillin-sensitive Staphylococcus aureus 15 after 18 hrs by broth microdilution method; format: functional, organism-based; settings: Staphylococcus aureus, 15, 18 h; read-out: IC50
Escherichia coli [15] = experiment: Antibacterial activity against Escherichia coli ATCC 25922 after 18 hrs by broth microdilution method; format: functional; settings: ATCC 25922, 18 h
Klebsiella pneumoniae [16] = experiment: Antibacterial activity against extended spectrum beta-lactamase producing Klebsiella pneumoniae 12-8 after 18 hrs by broth microdilution method; format: functional, organism-based; settings: 12-8, 18 h, read-out: IC50
Escherichia coli [17] = experiment: Antibacterial activity against extended spectrum beta-lactamase-deficient Escherichia coli ATCC 25922 after 18 hrs by broth microdilution method; format: functional, organism-based; settings: ATCC 25922, 18 h, read-out: IC50
Klebsiella pneumoniae [18] = experiment: Antibacterial activity against extended spectrum beta-lactamase-deficient Klebsiella pneumoniae 12-4 after 18 hrs by broth microdilution method; format: functional, organism-based; settings: 12-4, 18 h
Klebsiella pneumoniae [19] = experiment: Antibacterial activity against extended spectrum beta-lactamase producing Klebsiella pneumoniae ATCC 700603 after 18 hrs by broth microdilution method; format: functional, organism-based; settings: ATCC 700603, 18 h
Enterococcus faecalis [20] = experiment: Antibacterial activity against vancomycin-sensitive Enterococcus faecalis ATCC 29212 after 18 hrs by broth microdilution method; format: functional, organism-based; settings: ATCC 29212, 18 h, read-out: IC50
Bacillus subtilis = experiment: Antibacterial activity against Bacillus subtilis SCSIO BS01 after 18 hrs by broth microdilution method; format: functional; settings: SCSIO BS01, 18 h
Staphylococcus aureus [21] = experiment: Antibacterial activity against Staphylococcus aureus ATCC 29213 after 18 hrs by broth microdilution method; format: functional; settings: ATCC 29213, 18 h
Enterococcus faecium [22] = experiment: Antibacterial activity against vancomycin-resistant Enterococcus faecium ATCC 700221 after 18 hrs by broth microdilution method; format: functional, organism-based; settings: ATCC 700221, 18 h, read-out: IC50
Bacillus thuringiensis = experiment: Antibacterial activity against Bacillus thuringiensis SCSIO BT01 after 18 hrs by broth microdilution method; format: functional; settings: SCSIO BT01, 18 h
Staphylococcus aureus [23] = experiment: Ratio of levofloxacin IC50 to compound IC50 for methicillin-resistant Staphylococcus aureus 12-33 after 18 hrs by broth microdilution method; format: functional
Staphylococcus aureus [24] = experiment: Antibacterial activity against methicillin-resistant Staphylococcus aureus ATCC 33591 after 18 hrs by broth microdilution method; format: functional, organism-based; settings: ATCC 33591, 18 h, read-out: IC50
[25] = test system: Staphylococcus epidermidis; experiment: Antibacterial activity against methicillin-resistant Staphylococcus epidermidis 12-8 after 18 hrs by broth microdilution method; format: functional, organism-based; settings: 12-8, 18 h, read-out: IC50
Staphylococcus aureus [26] = experiment: Antibacterial activity against methicillin-resistant Staphylococcus aureus 12-33 after 18 hrs by broth microdilution method; format: functional, organism-based; settings: 12-33, 18 h, read-out: IC50
Enterococcus faecalis [27] = experiment: Antibacterial activity against vancomycin-resistant Enterococcus faecalis ATCC 51299 after 18 hrs by broth microdilution method; format: functional, organism-based; settings: ATCC 51299, 18 h, read-out: IC50

Question: With `CCCc1c(Cl)c(OC)c(Cl)c2c1Oc1c(Cl)c(O)c(Cl)c(CCC)c1C(=O)O2` as the compound, how does the MIC [1] read?
Answer: 4 µM (≈ 1.92 µg/mL)

Question: What about the MIC (Klebsiella pneumoniae [2]) of the same compound?
Answer: > 256 µM

Question: What about the IC50 (Staphylococcus aureus [3]) of the same compound?
Answer: 4 µM

Question: What about the IC50 [4] of the same compound?
Answer: 2 µM

Question: What about the MIC (Escherichia coli [5]) of the same compound?
Answer: > 256 µM

Question: What about the MIC (Escherichia coli [6]) of the same compound?
Answer: > 256 µM

Question: And the MIC (Staphylococcus aureus [7])?
Answer: 4 µM (≈ 1.92 µg/mL)

Question: What about the MIC (Enterococcus faecium [8]) of the same compound?
Answer: 4 µM (≈ 1.92 µg/mL)

Question: And the MIC (Enterococcus faecalis [9])?
Answer: 4 µM (≈ 1.92 µg/mL)

Question: What about the MIC (Enterococcus faecalis [10]) of the same compound?
Answer: 4 µM (≈ 1.92 µg/mL)

Question: And the IC50 (Escherichia coli [11])?
Answer: > 256 µM

Question: And the MIC (Klebsiella pneumoniae [12])?
Answer: > 256 µM

Question: What about the MIC (Enterococcus faecium [13]) of the same compound?
Answer: 4 µM (≈ 1.92 µg/mL)

Question: And the MIC (Staphylococcus aureus [14])?
Answer: 2 µM (≈ 0.96 µg/mL)

Question: What about the MIC (Escherichia coli [15]) of the same compound?
Answer: > 128 µg/mL

Question: What about the MIC (Klebsiella pneumoniae [16]) of the same compound?
Answer: > 256 µM

Question: What about the MIC (Escherichia coli [17]) of the same compound?
Answer: > 256 µM

Question: And the IC50 (Klebsiella pneumoniae [18])?
Answer: > 256 µM

Question: And the IC50 (Klebsiella pneumoniae [19])?
Answer: > 256 µM

Question: And the MIC (Enterococcus faecalis [20])?
Answer: 4 µM (≈ 1.92 µg/mL)

Question: And the MIC (Bacillus subtilis)?
Answer: 0.125 µg/mL (≈ 0.26 µM)

Question: What about the MIC (Staphylococcus aureus [21]) of the same compound?
Answer: 0.125 µg/mL (≈ 0.26 µM)

Question: What about the MIC (Enterococcus faecium [22]) of the same compound?
Answer: 4 µM (≈ 1.92 µg/mL)

Question: What about the MIC (Bacillus thuringiensis) of the same compound?
Answer: 0.25 µg/mL (≈ 0.521 µM)

Question: What about the “Ratio IC50” value (Staphylococcus aureus [23]) of the same compound?
Answer: 2

Question: And the MIC (Staphylococcus aureus [24])?
Answer: 2 µM (≈ 0.96 µg/mL)

Question: What about the MIC [25] of the same compound?
Answer: 1 µM (≈ 0.48 µg/mL)

Question: And the MIC (Staphylococcus aureus [26])?
Answer: 4 µM (≈ 1.92 µg/mL)

Question: What about the MIC (Enterococcus faecalis [27]) of the same compound?
Answer: 4 µM (≈ 1.92 µg/mL)
